# US11986450B2, “Methods and compositions for treating infection and inflammation with selenocyanate” (National Jewish Health, priority 2017, dated 2024)
# Key:
# [1] = biological target: Sec-containing TrxR2 (Sec-TrxR2) (Mus musculus, UniProt Q9JLT4); test: Inactivation of TrxR by oxidants; format: biochemical
# Method: (§1) Based on data, it is expected that Sec-TrxR1 is able to metabolize both HOSCN and HOSeCN but not HOCl, and that Cys-TrxR's is unable to metabolize these oxidants. The active site Cys or Sec residue of each respective enzyme is oxidized to either Cys-SO2^− or Sec-SeO2^−. The Cys-TrxR cannot recover from this oxidation while the Sec-TrxR can. To test this, an inactivation assay is performed followed by structural analysis of the protein by MS. In the inactivation assay, (i) enzymes are reduced with NADPH, (ii) the enzymes are treated with oxidant followed by desalting to remove oxidant, and (iii) the enzyme is assayed for activity. […] The proteins are proteolyzed followed by LC-MS analyses. The LC-MS profiles are compared to control samples not treated with oxidant. This determines the exact mechanism of inactivation for each enzyme. […] This would explain why HOCl is highly inflammatory (nonspecific oxidation), and why HOSCN is used as a bactericide because it can rapidly inactivate proteins/enzyme by oxidation of sulfur amino acids (Cys, Met), but can be metabolized by the host cell by Sec-TrxR.
# DmTrxR (containing Cys) = DmTrxR (containing Cys) (Drosophila melanogaster, UniProt P91938); test: Inactivation of TrxR by oxidants; format: biochemical
# Method: as §1
# [2] = biological target: recombinant E. coli Cys-TrxR (Escherichia coli, UniProt P0A9P4); test: Kinetic analysis of HOSeCN metabolism; format: biochemical; conditions: similar conditions
# Excerpt: FIG. 12. Kinetic analysis of HOSeCN metabolism by recombinant mouse Sec-TrxR2 and recombinant E. coli Cys-TrxR.
# [3] = test system: Burkholderia cepacia complex (BCC); test: BCC viability (CFU) after SeCN / peroxidase system; format: cell-based; conditions: full peroxidase system, 1 hour, pH 7.4
# Method: (§2) Human bronchial epithelial cells (HBE) or Burkholderia cepacia complex (BCC) were treated for 1 hour in PBS (control), SeCN only (grey bars), glucose oxidase only (hatch bar), or full peroxidase system (black bar) at pH 7.4 and then media replaces and viability assessed 24 hours later. HBE cell viability assessed by MTT and bacterial cell viability assessed by colony forming units.
# [4] = test system: NTM strains (MABSC subspecies abscessus and massiliense); test: LPO and SeCN dose responses in the killing of NTM; format: cell-based; conditions: four NTM strains, dose curves of LPO and SeCN, plated on LB agar immediately after mixing
# Method: FIGS. 25A and 25B show [LPO] and [—SeCN] dose responses in the killing of NTM. […] All samples were plated on LB immediately after mixing. CF0271-0636 and the ATCC strains were MABSC subspecies abscessus and CF0008-6241 was subspecies massiliense.
# (§3) To examine the variability in susceptibility to HOSeCN-mediated killing amongst clinical NTM isolates obtained from CF airways, four NTM strains were exposed to dose curves of LPO and —SeCN (FIGS. 25A and 25B). While some variations were detected in the sensitivity to killing amongst the isolates, bacterial viability was reduced to less than 10% with all isolates when plated on LB agar immediately after reactions were mixed. Importantly, levels of —SeCN able to reduce bacterial viability were not toxic to human epithelial cells, even in the presence of GOX (FIG. 26).
# [5] = Inhaled SeCN in mice, ELF and serum levels by HPLC-EC; format: in vivo, Mice (C57B6); conditions: aerosolized isotonic 0.05% (w/v) solution in PBS for 30 minutes
# Method: Mice are exposed to aerosolized isotonic (0.9%) or isotonic ^−SeCN (0.05%) in a Plexiglas nebulizing chamber (see FIG. 32 for data). Isotonicity is maintained by substituting ^−SeCN for NaCl. All stock solutions are freshly prepared and 10 mL are nebulized over the 30 minute exposure using a pulmosonic nebulizer (DeVilbiss). Outcomes include: 1) changes in serum, ELF, lung and BAL cell GSH, ^−SCN and SeCN levels; 2) changes is lung tissue Sec-TrxR levels and activity; 3) changes in oxidative stress with assessments of DNA (8-hydroxy-2-deoxyguanosine, 8OH2dG) and lipid (4-hydroxynonenal, 4HNE) oxidation; 4) changes in lung and blood bacterial CFUs; 5) changes in bronchoalveolar lavage fluid (BALF) protein, IgM and lactate dehydrogenase (LDH) as markers of edema and injury; 6) BAL cell counts and differentials as markers of inflammation; 7) changes in BALF cytokine profile (Mouse pro-inflammatory-7 Ultra sensitive kit, IFNγ, IL-1β, IL-10, IL-12p70, IL-6, KC, TNFα, Meso Scale Discovery) as markers of inflammation; and 8) standard histopathology assessments.
# [6] = test system: Pseudomonas aeruginosa, Burkholderia cepacia complex, methicillin resistant Staphylococcus aureus; test: Killing of CF colonizing bacteria by SCN or SeCN with host defense system (LPO+GOX); format: cell-based; conditions: 400 uM with LPO+GOX, 2 hours at room temperature, CFU
# Method: Comparisons of HOSeCN on SCN sensitive and resistant strains of (FIGS. 30A & 30B) BCC clinical isolates, (FIGS. 30C & 30D) PA clinical isolates, and (FIG. 30E & FIG. 30F) MRSA clinical isolates. Bacteria were incubated for 2 hour with LPO, ^−SCN or SeCN, glucose and increasing amounts of GOX. The flux (HOX) of either HOSCN or HOSeCN was determined from standard curves of GOX/LPO and either HOSCN or HOSeCN. LC50 values were determined by curve fitting the data with nonlinear regression of log (agonist) vs normalized response.
# [7] = test system: clinical isolate of M. abscessus; test: SeCN-mediated killing of NTM in different buffer/media; format: cell-based
# Method: FIGS. 27A-27C show —SeCN-mediaed killing of NTM requires active growth. A clinical isolate of M. abscessus was incubated in the listed buffer/media containing LPO at 1000 mU/ml and either KCL or SeCN. At the indicated time, samples were plated on LB agar as undiluted or 10× diluted in PBS. […] FIG. 27A in PBS; FIG. 27B in Middlebrook 7H9; FIG. 27C in Lysogeny Broth.
# Given the reduced viability observed with immediate plating of LPO/—SeCN reactions on LB agar while —SCN-mediated killing required prolonged incubation, the possibility that HOSeCN generated on the LB agar was responsible for the loss in viability was determined. […] The inventors believe that the LPO in undiluted samples remained active on the LB agar, and that the HOSeCN-mediated killing of NTM, which was not metabolically active in the PBS buffer, requires active growth of the NTM, which occurs on the LB agar. To test this, the PBS buffer was substituted with either Middlebrook 7H9 media (without catalase) or LB broth (FIGS. 27A, 27B and 27C).
# [8] = test system: Burkholderia cepacian clinical isolate; test: B. cepacia exposure to LPO and KSeCN; format: cell-based; conditions: 1000 mU/mL LPO, no GOX; 0 hr and 1 hour at 37 C
# Excerpt: (§4) FIGS. 24A and 24B show —SeCN-mediated killing of NTM requires LPO, but not GOX, while LPO/—SeCn has no effect upon B. Cepacia. […] All conditions with GOX also contained dextrose, the required substrate of GOX for H2O2 production.
# (§5) Susceptibility of NTM species to both HOSCN- and HOSeCN-mediated killing. […] Given the shorter amount of time necessary for —SeCN-mediated killing of NTM compared to other bacteria species (FIGS. 24A and 24B), the possibility that the mechanism responsible for —SeCN-mediated killing of NTM was unique compared to —SCN-mediated killing of NTM and —SeCN-mediated killing of other species is determined. […] Since killing required LPO, the inventors believe that endogenous H2O2 production by NTM provided the H2O2 required for the generation of HOSeCN via LPO and —SeCN.
# M. Abscessus = test: Killing of NTM clinical isolate with LPO/GOX and SCN or SeCN; format: cell-based; conditions: 1800 mU/mL LPO and 300 mU/mL GOX
# Excerpt: A HOSCN-sensitive nontuberculous Mycobacteria (NTM) clinical isolate ws exposed to LPO/GOX with either SCn or SeCN.
# as §5
# [9] = test system: clinical isolate of M. abscessus; test: NTM killing, exposure to GOX, LPO, SeCN components; format: cell-based; conditions: plated on LB agar immediately after mixing
# Excerpt: as §4, §5
# [10] = test system: Human bronchial epithelial cells (HBE); test: HBE cell viability (MTT) after SeCN / peroxidase system; format: cell-based; conditions: 1 hour treatment, viability 24 hours later, even in the presence of GOX
# Method: as §2, §3
# NTM = test: Preincubation of NTM with LPO, washing, then SeCN; format: cell-based; conditions: data not shown
# Method: The opposite is expected to be true for highly resistant NTMs. Adding exogenous catalase or an H2O2 scavenger is expected to inhibit —SeCN-mediated killing, while inhibiting endogenous catalase activity will increase —SeCN-mediated killing. In addition, LPO activity is expected to be localized to the surface of the bacterium. […] It is expected that very little Burkholderia will be killed when incubated in the presence of NTM/LPO/—SeCN, as the highly reactive HOSeCN species will be consumed by the NTM.
# 16HBE cells = test: Sec-TrxR inhibition and HOSCN toxicity in lung cells (LDH release); format: cell-based, human; conditions: auranofin 1 hour, then 300 μM HOSCN, viability 24 hours later
# Method: FIG. 19. […] 16HBE cells were treated with auranofin at increasing concentrations for 1 hour and then exposed to 300 μM of either HOSCN or HOCl and viability was assessed by lactate dehydrogenase release 24 hours later. Vehicle (Veh).
# Additional studies determine both leukocyte viability and bacterial viability after ^−SCN treatments and under simulated ^−SCN conditions with and without pharmacological inhibition of Sec-TrxR using auranofin and aurothioglucose (Rigobello, M. P., et al. (2008) Gold(I) complexes determine apoptosis with limited oxidative stress in Jurkat T cells. Eur J Pharmacol 582, 26-34). […] These assays have been described to study bacterial killing by neutrophils (Hampton, M. B., and Winterbourn, C. C. (1999) Methods for quantifying phagocytosis and bacterial killing by human neutrophils. J Immunol Methods 232, 15-22). Neutrophil death is assessed by flow cytometry using % of Annexin V (apoptosis marker) and propidium iodide (PI, necrosis marker) positive cells in each gate as shown in FIG. 7.
# [11] = test system: M. massiliense clinical isolate; test: Exogenous catalase inhibition of LPO/SeCN killing of NTM; format: cell-based; conditions: high levels of catalase; 1 mM SeCN, 1600 mU/mL LPO
# Method: FIG. 29A M. massiliense clinical isolate was incubated with 1 mM SeCN and either 1600 mU/mL LPO alone or with catalase.
# It is well known that NTM species express catalase genes and have the ability to produce H2O2 (Wayne L G, Diaz G A. Detection of a novel catalase in extracts of Mycobacterium avium and Mycobacterium intracellulare. Infection and immunity. 1988; 56(4):936-41.). As H2O2 is a required substrate of LPO and no exogenous source of H2O2 is needed for LPO/—SeCN-mediated killing, it is expected that NTM provides the H2O2 for utilization by LPO to generate HOSeCN. The inventors have performed a set of experiments that provide evidence that endogenously produced H2O2 plays a role in the LPO/—SeCN-mediated killing of NTM. In FIG. 29, exogenous catalase is utilized in an attempt to inhibit the LPO-mediated generation of HOSeCN. At high levels of catalase, 100% of the killing was inhibited. The high levels of catalase required for inhibition may be due to several reasons, including instability of the enzyme on LB agar and the possibility that LPO may be bound to and concentrated on the bacterial surface, as has been previously described for Streptococci (Pruitt K M, et al. Lactoperoxidase binding to streptococci. Infection and immunity. 1979; 25(1):304-9). […]
# [12] = LPO 1000 mU/ml, 0 to 4 hours, diluted 10× before plating
# Chain of DmTrxR (containing Cys) (P91938 112-596 limits assumed): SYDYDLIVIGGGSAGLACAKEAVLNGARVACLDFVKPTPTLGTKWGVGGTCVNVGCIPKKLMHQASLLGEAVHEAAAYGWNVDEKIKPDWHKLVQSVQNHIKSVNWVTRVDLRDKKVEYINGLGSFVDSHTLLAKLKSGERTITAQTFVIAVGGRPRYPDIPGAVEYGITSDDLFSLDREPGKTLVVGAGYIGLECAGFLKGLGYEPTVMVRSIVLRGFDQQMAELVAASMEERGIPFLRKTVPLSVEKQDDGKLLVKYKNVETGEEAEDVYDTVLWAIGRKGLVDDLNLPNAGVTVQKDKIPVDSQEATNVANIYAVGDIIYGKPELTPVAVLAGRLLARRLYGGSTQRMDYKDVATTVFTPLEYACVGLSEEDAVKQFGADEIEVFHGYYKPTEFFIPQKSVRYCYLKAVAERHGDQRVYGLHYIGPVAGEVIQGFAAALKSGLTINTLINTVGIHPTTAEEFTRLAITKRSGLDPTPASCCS
# Chain of Sec-containing TrxR2 (Sec-TrxR2) (Q9JLT4 35-524): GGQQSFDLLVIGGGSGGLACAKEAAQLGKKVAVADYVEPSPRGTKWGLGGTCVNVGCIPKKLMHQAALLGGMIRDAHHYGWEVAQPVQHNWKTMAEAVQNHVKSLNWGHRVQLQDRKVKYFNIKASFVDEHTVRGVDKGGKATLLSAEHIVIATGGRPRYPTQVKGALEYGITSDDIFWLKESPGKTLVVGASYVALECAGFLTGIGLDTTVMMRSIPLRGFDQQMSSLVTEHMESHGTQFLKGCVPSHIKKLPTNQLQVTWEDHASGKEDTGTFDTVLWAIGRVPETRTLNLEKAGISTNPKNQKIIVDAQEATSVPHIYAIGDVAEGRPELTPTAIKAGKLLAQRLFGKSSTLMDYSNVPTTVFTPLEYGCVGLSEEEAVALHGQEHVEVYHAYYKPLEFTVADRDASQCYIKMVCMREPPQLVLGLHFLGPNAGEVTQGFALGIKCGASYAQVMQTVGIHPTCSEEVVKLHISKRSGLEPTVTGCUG
# Chain of recombinant E. coli Cys-TrxR (P0A9P4 whole entry): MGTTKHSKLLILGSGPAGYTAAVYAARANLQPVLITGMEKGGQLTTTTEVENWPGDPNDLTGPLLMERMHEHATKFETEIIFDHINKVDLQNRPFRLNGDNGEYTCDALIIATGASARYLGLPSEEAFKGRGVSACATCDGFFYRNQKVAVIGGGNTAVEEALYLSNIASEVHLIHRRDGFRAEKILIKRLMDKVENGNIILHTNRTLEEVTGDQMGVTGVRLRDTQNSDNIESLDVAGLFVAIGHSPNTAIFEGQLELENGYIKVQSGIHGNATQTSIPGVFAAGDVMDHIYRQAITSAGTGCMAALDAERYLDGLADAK
molecule,measurement,setting,value
"OCl [HOCl, hypochlorite]",Inactivation of Sec-TrxR2 by oxidant,[1],resists inactivation
same,Inactivation of DmTrxR by oxidant,DmTrxR (containing Cys),is inactivated
"N#C[Se]O [HOSeCN, hyposelenocyanite]",HOSeCN metabolism activity,[2],no measurable activity
same,Bacterial cell viability (CFU),[3],killing bacteria
same,Inactivation of Sec-TrxR2 by oxidant,[1],resists inactivation
same,Inactivation of DmTrxR by oxidant,DmTrxR (containing Cys),is inactivated
"N#C[SeH] [SeCN, selenocyanate]",Bacterial viability,[4],less than 10%
same,ELF SeCN levels,[5],high ELF SeCN levels
same,Tolerability of inhaled SeCN,[5],well tolerated
same,"Killing of thiocyanate susceptible and resistant bacteria, compared with SCN",[6],as effective or superior
same,Bacterial growth in Middlebrook 7H9 media,[7]; [12],prevented bacterial growth
same,Viability in LB broth,[7]; [12],loss of viability
same,Killing in PBS buffer,"[7]; with LPO, samples diluted 10-fold before plating on LB agar",no killing detected
same,Effect of LPO and SeCN alone upon B. cepacia,[8],no effect
same,"Killing of M. Abscessus, compared with SCN",M. Abscessus,more efficient than SCN
same,"Killing of NTM with LPO, without GOX",[9],only required LPO and —SeCN
same,Toxicity to human epithelial cells (HBE viability),[10],not toxic
same,Killing of NTM after LPO preincubation and washing,NTM,substantial killing
CC(=O)OC[C@H]1O[C@@H]([S-])[C@H](OC(C)=O)[C@@H](OC(C)=O)[C@@H]1OC(C)=O.CCP(CC)CC.[Au+] [auranofin],Sensitization of lung cells to HOSCN-mediated toxicity,16HBE cells,sensitizes lung cells to HOSCN-mediated toxicity
catalase,Inhibition of LPO/SeCN-mediated killing,[11],100%
